From US10336792B2, “Antimicrobial peptide dendrimers” (priority 2014, dated 2019)

Assays:
[1] = 5(6)-Carboxyfluorescein leakage from lipid vesicles; conditions: 10 mM TRIS, 107 mM NaCl, pH 7.4; peptide added at 50 s
Protocol: (§1) Preparation A thin lipid film was prepared by evaporating a solution of 25 mg Egg PC or Egg PG in 1 mL MeOH/CHCl3 1/1 on a rotary evaporator (rt) and then in vacuo overnight. The resulting film was hydrated with 1 mL buffer (50 mM CF, 10 mM TIRS, 10 mM NaCl, pH 7.4) for 30 min, subjected to freeze-thaw cycles (7×) and extrusion (15×) through a polycarbonate membrane (pore size 100 nm). Extravesicular components were removed by gel filtration (Sephadex G-50) with 10 mM TRIS, 107 mM NaCl, pH 7.4. Final conditions: ˜2.5 mM Egg PC or Egg PG; inside: 50 mM CF, 10 mM TIRS, 10 mM NaCl, pH 7.4; outside: 10 mM TRIS, 107 mM NaCl, pH 7.4.
(§2) Experiment Egg PC or Egg PG stock solutions (37.5 μL) were diluted with a buffer (10 mM TRIS, 107 mM NaCl, pH 7.4) and placed in a thermostated fluorescence cuvette (25° C.) and gently stirred (total volume in the cuvette ˜3000 μL; final lipid concentration ˜31.25 μM). CF efflux was monitored at λem 517 nm (λex 492 nm) as a function of time after addition of 20 μL of peptide dendrimer in buffer (10 mM TRIS, 107 mM NaCl, pH 7.4) with final concentrations of 1, 5, 7.5, 10, 15, 20, 25, 30 μg/mL at t=50 s and 1.2% trition X-100 (30 μL, 0.012% final concentration) at t=300 s. Fluorescence intensities were normalized to fractional emission intensity I(t) using I(t)=(It−I0)/(I∞−I0) where I0 It at peptide dendrimer addition, I∞=It at saturation of lysis.

[2] = as above; conditions: 10 mM TRIS, 107 mM NaCl, pH 7.4; peptide added at 50 s; remark: listed apart in the source
Protocol: as §1, §2
Bacterial membranes contain relatively large amounts of exposed anionic lipids, while the outer leaflet of the membranes of plants and animals is composed mainly of lipids with no net charge. The charge composition of such membranes can be mimicked with phospholipid vesicles. Large unilamellar vesicles (LUVs) composed of the neutral phospholipid with PC (phosphatidyl choline) or with PG (phosphatidyl glycerol) with negative charges were prepared encapsulating 5(6)-carboxyfluorescein (CF). […] The higher the concentration of MSt-112 the higher is the CF leakage (FIG. 6A). […] Overall the active AMPDs interact with the negatively charged membrane and release the CF.

[3] = system: P. aeruginosa PEJ2.6, PEJ9.1, ZEM1.A, ZEM9.A (clinical isolates); type: cell-based, Pseudomonas aeruginosa; conditions: MH medium, 12-18 h
Method in brief: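 Broth microdilution in Müller-Hinton medium, two-fold serial dilutions from a starting 32–256 μg/mL, compounds dissolved in PBS; inoculum about 5×10^5 CFU, incubated 37° C ~18 h. MIC taken as lowest concentration with no visible growth by eye; polymyxin as reference.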

In the case of Polymyxin B [reference compound], the “CF leakage from phosphatidylcholine LUVs” value [1] is reported as “behave in the same way”, the “CF leakage from phosphatidylglycerol LUVs” value [2] is reported as “immediate leakage of CF” and the “MIC P. aeruginosa MDR clinical isolate PEJ2.6” value [3] is reported as 1 µg/mL. For the same substance, the “MIC P. aeruginosa MDR clinical isolate PEJ9.1” value [3] was 2 µg/mL, the “MIC P. aeruginosa MDR clinical isolate ZEM1A” value [3] was under 1 µg/mL and the “MIC P. aeruginosa MDR clinical isolate ZEM9A” value [3] was 8 µg/mL.
